Test results as given in US20230404998A1, “Combination Therapies for Treating Cancer” (ASCENTAGE PHARMA (SUZHOU) CO., LTD., priority 2020, published 2023).
“Also recorded” adds a separate entry of the source. Marks after values point to notes of the source that are not given here.

Legend:
[1] = system: E255V/T315I orthotopic tumor model; test: In vivo efficacy, E255V/T315I orthotopic tumor model; parameters: species or system mouse; conditions: ABL001 60 mg/kg, Ponatinib 20 mg/kg, HQP1351 20 mg/kg
Procedure: (§1) In vivo efficacy was evaluated using the syngeneic mouse model derived from BaF3 cells with T315I and/or compound mutations. Tumor models were established by intravenously injecting tumor cells (1×10^5/mouse) into the caudal vein under sterile conditions. Mice were randomized into control and treatment groups with 8-10 mice per group and start the treatment from the second day post inoculation. The animal body weights were measured twice a week. The antitumor activity curves of test articles were plotted with the treatment time (day) on the X-axis, and corresponding survival rate on the Y-axis. A Log-rank (Mental-cox) test was employed to analyze the statistical significance of any difference between the treatment group and the control group. Prism version 7 (GraphPad Software Inc., San Diego, CA) was used for all statistical analysis and for graphic presentation.

[2] = system: RANCA tumor tissues; test: Tumor-infiltrating lymphocyte assays in RANCA tumor tissues; format: in vivo, mouse
[3] = system: RAG; test: Antiproliferative activity in RCC line RAG; format: cell-based; conditions: Mus musculus; murine RCC line RAG
[4] = target: BaF3(Bcr-Abl) V299L-F39V (Homo sapiens, UniProt P00519, V299L/F359V, cells depend on it); conditions: read-out: Anti-proliferation (IC50)
Procedure: (§2) The anti-proliferative effect was determined by a water-soluble tetrazolium (WST)-based assay using Cell Counting Kit-8 (CCK-8, #D3100L4057, Shanghai life ilab bio technology co., LTD, China). Cells were seeded in 96-well plates and treated with different concentrations of test articles. […] Each treatment was tested in triplicates. The plate was then cultured at 37° C. with 5% CO2 for 72 hours. At the end of treatments, 20 μl/well of CCK-8 reagent was directly added to each wells. The plate was then incubated at 37° C. with 5% CO2 for 2-4 h. The OD value was detected at 450 nm on a microplate reader (SpectraMax I3X, Molecular Devices, US). IC50 values were calculated with Graphpad Prism 7.0 software using nonlinear regression (curve fitting) type data analysis. For combination effect assay, the cells viability was normalized using the mean OD value of triplicated wells for the single agent control.

[5] = target: BaF3(Bcr-Abl) Wild-type (Homo sapiens, UniProt P00519); conditions: read-out: Anti-proliferation (IC50)
Procedure: as §2

[6] = target: BaF3(Bcr-Abl) T315I-M351T (Homo sapiens, UniProt P00519, T315I/M351T, cells depend on it); conditions: read-out: Anti-proliferation (IC50)
Procedure: as §2

[7] = target: BaF3(Bcr-Abl) T315I-E459K (Homo sapiens, UniProt P00519, T315I/E459K, cells depend on it); conditions: read-out: Anti-proliferation (IC50)
Procedure: as §2

[8] = target: BaF3(Bcr-Abl) F317L (Homo sapiens, UniProt P00519, F317L, cells depend on it); conditions: read-out: Anti-proliferation (IC50)
Procedure: as §2

[9] = target: BaF3(Bcr-Abl) T315I-G250E (Homo sapiens, UniProt P00519, G250E/T315I, cells depend on it); conditions: read-out: Anti-proliferation (IC50)
Procedure: as §2

[10] = target: BaF3(Bcr-Abl) Y253H-F359V (Homo sapiens, UniProt P00519, Y253H/F359V, cells depend on it); conditions: read-out: Anti-proliferation (IC50)
Procedure: as §2

[11] = system: human umbilical vein endothelial cells; test: Antiproliferative effects on human umbilical vein endothelial cells; format: cell-based
[12] = system: VEGFR, SRC, Akt and extracellular signal-regulated kinases in vascular endothelial cells; test: Phosphorylation of VEGFR, SRC and downstream proteins in vascular endothelial cells; format: cell-based
[13] = system: p-SRC and PD-L1 expression in H460 and A549 cells; test: Western blot / RT-PCR of p-SRC and PD-L1 expression in NSCLC cell lines; format: cell-based, human
Procedure: Cells were treated with the indicated concentrations and washed twice with cold PBS. Whole cell extracts were collected in RIPA lysis buffer (Santa Cruz Biotechnology, Germany), and protein concentration of the lysates was measured using a BCA Protein Assay Kit (ThermoFisher, USA). The protein samples were electrophoresed through a 10% SDS-PAGE gel and transferred to a polyvinylidene difluoride (PVDF) membrane (Roche, USA). After blocking, membranes were probed with primary antibodies (1:1000) against SRC, p-SRC, PD-L1, GAPDH, 0-tubulin (Cell Signaling Technology, USA) followed by washing and incubation with a secondary antibody (1:5000) conjugated to horseradish peroxidase (Santa Cruz Biotechnology, USA). Protein bands were visualized by applying a chemiluminescent reagent (Pierce ECL kit, Thermo Fisher Scientific, USA) and protein level were quantified by Image Lab (Bio-Rad Laboratory, USA).
Total cellular RNA was extracted by Trizol (Invitrogen, USA) for mRNA analysis. RNA was reverse-transcribed to cDNA profile through using the Transcriptor First Strand cDNA Synthesis kit (Roche Applied Science, USA) and then Real time PCR reactions were performed using the FastStart SYBR Green Master (ROX) reagent (Roche Applied Science, USA) according to the manufacturer's instructions. […]

[14] = system: F317L/T315I orthotopic tumor model; test: In vivo efficacy, F317L/T315I orthotopic tumor model; parameters: species or system mouse; conditions: ABL001 60 mg/kg, Ponatinib 20 mg/kg, HQP1351 20 mg/kg
Procedure: as §1

[15] = system: Ph+ ALL SUP-B15 cells; test: Cell viability assay (Cell-Titer Glo) in leukemia cell lines; format: cell-based; conditions: 72 hours
Procedure: After treatment, cell viability was measured by Promega© Cell-Titer Glo®3D Cell Viability Assay luminescence assay kit according to instructions from the manufacturer (Promega, Madison, WI, USA, Cat #G7571). Luminescence signal was detected using a BioTek Synergy H1 Hybrid Multi-Mode (Microplate) Reader (BioTek, Shanghai). Cellular proliferative (i.e. viability) curves were plotted and anti-proliferation IC50 values were calculated using Graphpad Prism version 6.0 software (GraphPad Software, San Diego, CA USA).

[16] = system: PD-L1 in RCC cells; test: PD-L1 expression in RCC cells; format: cell-based
[17] = system: Y253H/T315I orthotopic tumor model; test: In vivo efficacy, Y253H/T315I orthotopic tumor model; parameters: species or system mouse; conditions: ABL001 60 mg/kg, Ponatinib 20 mg/kg, HQP1351 20 mg/kg
Procedure: as §1

[18] = system: RANCA; test: Antiproliferative activity in RCC line RANCA; format: cell-based; conditions: Mus musculus; murine RCC line RANCA
[19] = target: VEGFR2 (Homo sapiens, UniProt P35968); test: Cell-free kinase assay VEGFR2; format: biochemical
[20] = target: T1, BCR-ABL single or compound mutations (BaF3 cells) (Homo sapiens, UniProt P00519, cells depend on it, form not given); test: Cell based anti-proliferation studies, BaF3 cells with BCR-ABL single or compound mutations (summary); parameters: species or system murine
T1 construct: fused on or other part: P11274 (Breakpoint cluster region protein)
Procedure: as §2
A series of cell lines expressing BCR-ABL single or compound mutations were constructed based on BaF3 murine pro-B cell line.

[21] = system: FGFR; test: Phosphorylation of FGFR and downstream proteins in cancer cells; format: cell-based
[22] = system: T315I orthotopic tumor model; test: In vivo efficacy, T315I orthotopic tumor model; parameters: species or system mouse; conditions: ABL001 60 mg/kg, Ponatinib 20 mg/kg, HQP1351 20 mg/kg
Procedure: as §1

[23] = target: VEGFR3 (Homo sapiens, UniProt P35916); test: Cell-free kinase assay VEGFR3; format: biochemical

SMILES: Cc1ccc(C(=O)Nc2ccc(CN3CCN(C)CC3)c(C(F)(F)F)c2)cc1C#Cc1cnc2[nH]ncc2c1 [HQP1351, 3-(2-(1H-pyrazolo[3,4-b]pyridin-5-yl)ethynyl)-4-methyl-N-(4-((4-methylpiperazin-1-yl)methyl)-3-(trifluoromethyl)phenyl)-benzamide]
- Median survival [1]: 27.0****
- Survival prolongation (%) [1]: 28.57%
- Survive/Total @ D26 [1]: 0/10
- Immune cell numbers in RANCA tumor tissues [2]: increased numbers of cytotoxic T cells (CTL, CD8^+) and natural-killer cells
- IC50 [3]: 53 nM
- GI50 [4]: 32 ± 4 nM
- GI50 [5]: 6 nM
- GI50 [6]: 67 ± 44 nM
- GI50 [7]: 109 ± 4 nM
- GI50 [8]: 8 ± 3 nM
- GI50 [9]: 33 ± 2 nM
- GI50 [10]: 311 ± 35 nM
- Antiproliferative effects compared to lenvatinib [11]: more potent antiproliferative effects
- Phosphorylation of VEGFR, SRC, and downstream proteins Akt and extracellular signal-regulated kinases [12]: inhibiting phosphorylation of VEGFR, SRC, and downstream proteins
- PD-L1 and p-SRC levels at different time points ([13]; 2 μM HQP-1351): time-dependent suppression of PD-L1 and p-SRC levels
- PD-L1 expression and p-SRC phosphorylation, differing concentrations ([13]; NSCLC cell lines, 24 h, Western blot): decreased PD-L1 expression as well as p-SRC phosphorylation in a concentration-dependent manner
- Median survival [14]: 25.0****^$
- Survival prolongation (%) [14]: 42.86%
- Survive/Total @ 24 [14]: 0/8
- Proliferation of Ph+ leukemia cells including SUP-B15 [15]: selectively inhibited the proliferation of Ph+ cells; also recorded: potently inhibits the proliferation
- Expression of PD-L1 in RCC cells [16]: reduced expression of PD-L1
- Median survival [17]: 18.5
- Survival prolongation (%) [17]: 8.82%
- Survive/Total @ 24 [17]: 0/8
- IC50 [18]: 141 nM
- IC50 [19]: 6.1 nM
- Anti-proliferative effectiveness against compound mutations compared with other TKIs ([20]; BCR-ABL compound mutations): more effective than ponatinib, asciminib and other TKIs
- GI50 ([20]; read-out: IC50 values toward BCR-ABL single or compound mutations, range over BaF3 BCR-ABL mutant cell lines): 6 to 300 nM
- Phosphorylation of FGFR and downstream proteins [21]: inhibiting phosphorylation of FGFR and downstream proteins
- Median survival [22]: 27.0****
- Survival prolongation (%) [22]: 28.57%
- Survive/Total @ D43 [22]: 0/10
- IC50 [23]: 4.1 nM
